Converted amounts (≈) assume the structure as drawn. Like-named read-outs stand apart in the source and are kept apart here.
Tests used:
P. aeruginosa ATCC 27853 = assay: microbe, parasite or virus in culture; format: cell-based; conditions: Pseudomonas aeruginosa, ATCC27853, read-out: Minimum inhibitory concentration, P. aeruginosa ATCC 27853
N. gonorrhoeae MS11 = assay: Liquid broth MIC in Fastidious broth; conditions: Neisseria gonorrhoeae
B. pseudomallei Bp82 = assay: microbe, parasite or virus in culture; format: cell-based; conditions: Burkholderia pseudomallei, BP82, read-out: Minimum inhibitory concentration, B. pseudomallei Bp82
A. baumannii ATCC 19606 = assay: microbe, parasite or virus in culture; format: cell-based; conditions: Acinetobacter baumannii, ATCC19606, read-out: MIC, A. baumannii ATCC 19606
P. aeruginosa ATCC 35151 = assay: microbe, parasite or virus in culture; format: cell-based; conditions: Pseudomonas aeruginosa, ATCC35151, read-out: Minimum inhibitory concentration, P. aeruginosa ATCC 35151
P. aeruginosa CDC-0054 = assay: microbe, parasite or virus in culture; format: cell-based; conditions: Pseudomonas aeruginosa, CDC0054, read-out: Minimum inhibitory concentration, P. aeruginosa CDC-0054
[1] = system: B. humptydooensis ATCC BAA-2767; assay: microbe, parasite or virus in culture; format: cell-based; conditions: Burkholderia humptydooensis, ATCCBAA2767, read-out: Minimum inhibitory concentration (MIC), B. humptydooensis ATCC BAA-2767
[2] = system: B. thailandensis ATCC 700388; assay: microbe, parasite or virus in culture; format: cell-based; conditions: Burkholderia thailandensis, ATCC700388, read-out: Minimum inhibitory concentration (MIC), B. thailandensis ATCC 700388
A. baumannii CDC-0083 = assay: microbe, parasite or virus in culture; format: cell-based; conditions: Acinetobacter baumannii, CDC0083, read-out: MIC, A. baumannii CDC-0083
N. gonorrhoeae CDC-0197 = assay: Liquid broth MIC in Fastidious broth; conditions: Neisseria gonorrhoeae
P. aeruginosa CDC-0110 = assay: microbe, parasite or virus in culture; format: cell-based; conditions: Pseudomonas aeruginosa, CDC0110, read-out: Minimum inhibitory concentration, P. aeruginosa CDC-0110
A. baumannii CDC-0045 = assay: microbe, parasite or virus in culture; format: cell-based; conditions: Acinetobacter baumannii, CDC0045, read-out: MIC, A. baumannii CDC-0045
[3] = system: P. aeruginosa (ΔmexAB-oprM); assay: Broth microdilution MIC in iron-depleted CAMHB (IDM); format: cell-based; conditions: Pseudomonas aeruginosa; iron-depleted CAMHB (IDM); […]; read-out: Minimum inhibitory concentration, P. aeruginosa ΔmexAB-oprM
[4] = MS11, read-out: Minimum Inhibitory Concentration (MIC), N. gonorrhoeae MS11
[5] = CDC0197, read-out: Minimum Inhibitory Concentration (MIC), N. gonorrhoeae CDC-0197
[6] = MS11, read-out: Minimum Inhibitory Concentration, MS11
[7] = CDC0197, read-out: Minimum Inhibitory Concentration, CDC-0197

Row | Structure (SMILES) | MIC (P. aeruginosa ATCC 27853) | MIC (N. gonorrhoeae MS11; [4]) | MIC (B. pseudomallei Bp82) | MIC (A. baumannii ATCC 19606) | MIC (P. aeruginosa ATCC 35151) | MIC (P. aeruginosa CDC-0054) | MIC [1] | MIC [2] | MIC (A. baumannii CDC-0083) | MIC (N. gonorrhoeae CDC-0197; [5]) | MIC (P. aeruginosa CDC-0110) | MIC (A. baumannii CDC-0045) | MIC [3] | MIC (N. gonorrhoeae MS11; [6]) | MIC (N. gonorrhoeae CDC-0197; [7])
1 | O=C(NCCCN1CCN(C(=O)N[C@@H](C(=O)N[C@H]2Cc3ccc(F)c(C(=O)O)c3OB2O)c2cc(F)c(O)c(O)c2Cl)C(=O)C1=O)c1cccnc1 [Example 210, (R)-3-((R)-2-(2-chloro-5-fluoro-3,4-dihydroxyphenyl)-2-(4-(3-(nicotinamido)propyl)-2,3-dioxopiperazine-1-carboxamido)acetamido)-7-fluoro-2-hydroxy-3,4-dihydro-2H-benzo[e][1,2]oxaborinine-8-carboxylic acid] | 2 to 4 µg/mL (≈ 2.69 to 5.37 µM) | 16 to 32 µg/mL (≈ 21.5 to 43 µM) | < 1 µg/mL | < 1 µg/mL | < 1 µg/mL | < 1 µg/mL | < 1 µg/mL | < 1 µg/mL | 2 to 4 µg/mL (≈ 2.69 to 5.37 µM) | > 64 µg/mL | < 1 µg/mL | < 1 µg/mL | < 1 µg/mL | – | –
2 | O=C(NCCS(=O)(=O)N1CCN(C(=O)NC(C(=O)N[C@H]2Cc3ccc(F)c(C(=O)O)c3OB2O)c2cc(F)c(O)c(O)c2Cl)C1=O)c1cccnc1 (stereo partly drawn) [Example 262, (3R)-3-(2-(2-chloro-5-fluoro-3,4-dihydroxyphenyl)-2-(3-((2-(nicotinamido)ethyl)sulfonyl)-2-oxoimidazolidine-1-carboxamido)acetamido)-7-fluoro-2-hydroxy-3,4-dihydro-2H-benzo[e][1,2]oxaborinine-8-carboxylic acid] | < 1 µg/mL | – | < 1 µg/mL | < 1 µg/mL | < 1 µg/mL | 2 to 4 µg/mL (≈ 2.61 to 5.22 µM) | < 1 µg/mL | < 1 µg/mL | < 1 µg/mL | – | < 1 µg/mL | < 1 µg/mL | < 1 µg/mL | 16 to 32 µg/mL (≈ 20.9 to 41.7 µM) | 16 to 32 µg/mL (≈ 20.9 to 41.7 µM)
3 | CN(CCN1CCN(C(=O)N[C@@H](C(=O)N[C@H]2Cc3ccc(F)c(C(=O)O)c3OB2O)c2cc(F)c(O)c(O)c2Cl)C(=O)C1=O)Cc1cncc(O)c1 [Example 208, (R)-3-((R)-2-(2-chloro-5-fluoro-3,4-dihydroxyphenyl)-2-(4-(2-(((5-hydroxypyridin-3-yl)methyl)(methyl)amino)ethyl)-2,3-dioxopiperazine-1-carboxamido)acetamido)-7-fluoro-2-hydroxy-3,4-dihydro-2H-benzo[e][1,2]oxaborinine-8-carboxylic acid] | < 1 µg/mL | 4 to 8 µg/mL (≈ 5.36 to 10.7 µM) | < 1 µg/mL | < 1 µg/mL | < 1 µg/mL | 2 to 4 µg/mL (≈ 2.68 to 5.36 µM) | < 1 µg/mL | < 1 µg/mL | < 1 µg/mL | 16 to 32 µg/mL (≈ 21.4 to 42.8 µM) | < 1 µg/mL | < 1 µg/mL | < 1 µg/mL | – | –
4 | O=C(O)c1c(F)ccc2c1OB(O)[C@@H](NC(=O)C(NC(=O)N1CCN(S(=O)(=O)CCCNC(=O)[C@@H]3CCCN3)C1=O)c1cc(F)c(O)c(O)c1Cl)C2 (stereo partly drawn) [Example 275, (3R)-3-(2-(2-chloro-5-fluoro-3,4-dihydroxyphenyl)-2-(2-oxo-3-((3-((S)-pyrrolidine-2-carboxamido)propyl)sulfonyl)imidazolidine-1-carboxamido)acetamido)-7-fluoro-2-hydroxy-3,4-dihydro-2H-benzo[e][1,2]oxaborinine-8-carboxylic acid] | 2 to 4 µg/mL (≈ 2.59 to 5.18 µM) | – | < 1 µg/mL | < 1 µg/mL | < 1 µg/mL | 8 to 16 µg/mL (≈ 10.4 to 20.7 µM) | < 1 µg/mL | < 1 µg/mL | 2 to 4 µg/mL (≈ 2.59 to 5.18 µM) | – | < 1 µg/mL | < 1 µg/mL | < 1 µg/mL | 16 to 32 µg/mL (≈ 20.7 to 41.4 µM) | 16 to 32 µg/mL (≈ 20.7 to 41.4 µM)

— patent publication US20240270762A1, “PENICILLIN-BINDING PROTEIN INHIBITORS” (priority 2021, published 2024)
